Reference: US20260232636A1, “INHIBITORS OF LRRK2” (Vanderbilt University, priority 2023, published 2026)

What was measured:
[1] = molecular target: T1, LRRK2 WT (Homo sapiens, UniProt Q5S007); test: Cellular phospho-LRRK2 S935 HTRF assay, WT-HEK293 cells; assay type: cell-based; details: pS935 LRRK2 Cellular Activity Assay; HEK293 cells stably expressing human LRRK2 WT, 2 hr incubation
Source text: This method utilizes two antibodies, europium-Cryptate (donor) antibody and d2-Cryptate (acceptor) antibody, specifically binding to total and phospho S935 of LRRK2, respectively. When two fluorophores are in close proximity, i.e. activation of kinase, time-resolved fluorescence energy transfer (TR-FRET) occurs where a light source excites europium donor, the 615 nm emission by europium then excites d2 acceptor. […] All cell culture reagents were purchased from Life Technologies, and phospho-LRRK2 S935 assay reagents were from Perkin Elmer (#6FLRKPEH). Briefly, the day before the assay, the cells (5,000 cells/20 μL/well) are prepared in the plating medium (growth medium without G418). […] The activities of inhibitors at WT and GS mutant are measured in separate cell plates.
For full enzyme control and maximum enzyme inhibition wells, 600 nL of DMSO and 0.2 mM MLi-2 were transferred, respectively. The final 2× compound plate is prepared by adding 60 μL of plating medium to each well. […] Compounds are incubated for 2 hrs in 37° C. humidified incubators.
During compound incubation, 4× lysis buffer and 100× blocking buffer are diluted to 1× with H2O. After 2 hr incubation, treatment medium is removed using an ELx405 Microplate washer (Agilent), and 16 μL of lysis/blocking buffer is immediately added to each well in entire plates. The plates are sealed with a plate seal, and placed on a plate shaker for 30 min at room temperature with shaking at 200 rpm.
During the lysis step, 1× antibody working solutions are prepared by diluting 40× Eu-Cryptate antibody and d2-antibody in detection buffer. After the cell plates are spun at 100×g for 1 min, 4 μL of antibody solutions is added to each well in entire plates. The plates are sealed with a plate seal, and placed on a plate shaker for 4 hrs at room temperature with shaking at 200 rpm.

[2] = molecular target: T1, LRRK2 WT; test: Biochemical LRRK2 LanthaScreen TR-FRET kinase assay, wild type
Protocol: The in-vitro LRRK2 wild type (WT) and G2019S (GS) mutant enzyme activities are assessed for their abilities to phosphorylate a peptide substrate using the LanthaScreen™ (Thermo Fisher) Time-Resolved Fluorescence Energy Transfer (TR-FRET) kinase assay format. The kinase reaction is composed of purified human LRRK2 WT or GS enzymes, a fluorescein labelled peptide substrate (LRRKtide), and ATP. Subsequently, the resulting phosphorylated LRRKtide is recognized by a Terbium-labelled antibody that specifically binds only to the phosphorylated form of LRRKtide. […] In detail, when the phosphorylated LRRKtide is bound to the Terbium (donor) labelled antibody, the FRET signal measured with a 495 nm filter specific to Terbium induces the excitation of the fluorescein (acceptor) of the phosphorylated LRRKtide. Then, this leads to the FRET emission signal measured with a 520 nm filter specific to fluorescein.
The newly synthesized LRRK2 inhibitors are evaluated for their abilities to block phosphorylation of the LRRKtide substrate by WT and GS mutant enzymes. The level of phosphorylation inhibition is proportional to the level of FRET ratio decrease. […] Each assay plate also includes 3 reference controls; (1) full kinase activity control wells containing 1% DMSO vehicle, (2) maximum kinase inhibition control wells containing 1 μM MLi-2, well-known LRRK2 inhibitor, and (3) no enzyme control wells serving as assay background level that should match to the maximum enzyme inhibition level by a 1 M MLi-2 control.
Inhibitors (1 mM stock solution in DMSO) are serially diluted 1:4 into 11 point concentration response curves in DMSO using the Bravo Liquid Handler (Agilent). […] Therefore, the final concentration of 11 point dose response curves of inhibitors ranges from 10 μM to 0.01 nM. For both full enzyme control and no enzyme control wells, 100 nL DMSO is added. For maximum enzyme inhibition wells, 100 nL of 0.1 mM MLi-2 is added.
Next, LRRK2 enzymes, substrate, and ATP are diluted as 2× in 1× kinase buffer (50 mM Tris, pH 8.5, 5 mM MgCl2, 1 mM EGTA, 0.01% BRIJ-35, 2 mM DTT). First, the purified human LRRK2 enzymes are diluted to 6 nM (2×) in a 5 μL volume per well. After adding the WT proteins (Thermo Fisher, cat #PR8604B) and GS mutant proteins (Thermo Fisher, cat #PR8764C) to separate assay plates containing inhibitors/DMSO, the plates are spun down at 100×g for 1 min and placed on a plate shaker with gentle shaking at 50 rpm to incubate enzyme with inhibitors/DMSO at 25° C. for 15 min. The kinase buffer alone (5 μL/well) is added to the no enzyme control wells. Secondly, LRRKtide substrate (Thermo Fisher #PV4901) and ATP (Thermo Fisher #PV3227) are diluted to 2× (0.4 M and 50 μM, respectively) in a 5 μL volume per well. Immediately after the 15 min enzyme incubation, 5 μL of LRRKtide and ATP mixtures are added to entire plates. The plates are spun down at 100×g for 1 min, and covered with a black lid to protect from light. Kinase reaction is allowed at 25° C. for 120 mins with gentle shaking at 50 rpm.
The kinase reaction is immediately stopped by adding 10 μL of 2× TR-FRET detection solution to entire plates. The plates were spun down at 100×g for 1 min, and covered with a black lid to protect from light. The TR-FRET detection reaction was allowed at 25° C. for 30 mins with gentle shaking at 50 rpm.
All ratio data are then normalized to % enzyme activity. Curve fitting and potencies (IC50) of the inhibitors are determined using a four-parameter logistical equation using GraphPad Prism (La Jolla, CA).

T1 sequence (Q5S007 whole entry): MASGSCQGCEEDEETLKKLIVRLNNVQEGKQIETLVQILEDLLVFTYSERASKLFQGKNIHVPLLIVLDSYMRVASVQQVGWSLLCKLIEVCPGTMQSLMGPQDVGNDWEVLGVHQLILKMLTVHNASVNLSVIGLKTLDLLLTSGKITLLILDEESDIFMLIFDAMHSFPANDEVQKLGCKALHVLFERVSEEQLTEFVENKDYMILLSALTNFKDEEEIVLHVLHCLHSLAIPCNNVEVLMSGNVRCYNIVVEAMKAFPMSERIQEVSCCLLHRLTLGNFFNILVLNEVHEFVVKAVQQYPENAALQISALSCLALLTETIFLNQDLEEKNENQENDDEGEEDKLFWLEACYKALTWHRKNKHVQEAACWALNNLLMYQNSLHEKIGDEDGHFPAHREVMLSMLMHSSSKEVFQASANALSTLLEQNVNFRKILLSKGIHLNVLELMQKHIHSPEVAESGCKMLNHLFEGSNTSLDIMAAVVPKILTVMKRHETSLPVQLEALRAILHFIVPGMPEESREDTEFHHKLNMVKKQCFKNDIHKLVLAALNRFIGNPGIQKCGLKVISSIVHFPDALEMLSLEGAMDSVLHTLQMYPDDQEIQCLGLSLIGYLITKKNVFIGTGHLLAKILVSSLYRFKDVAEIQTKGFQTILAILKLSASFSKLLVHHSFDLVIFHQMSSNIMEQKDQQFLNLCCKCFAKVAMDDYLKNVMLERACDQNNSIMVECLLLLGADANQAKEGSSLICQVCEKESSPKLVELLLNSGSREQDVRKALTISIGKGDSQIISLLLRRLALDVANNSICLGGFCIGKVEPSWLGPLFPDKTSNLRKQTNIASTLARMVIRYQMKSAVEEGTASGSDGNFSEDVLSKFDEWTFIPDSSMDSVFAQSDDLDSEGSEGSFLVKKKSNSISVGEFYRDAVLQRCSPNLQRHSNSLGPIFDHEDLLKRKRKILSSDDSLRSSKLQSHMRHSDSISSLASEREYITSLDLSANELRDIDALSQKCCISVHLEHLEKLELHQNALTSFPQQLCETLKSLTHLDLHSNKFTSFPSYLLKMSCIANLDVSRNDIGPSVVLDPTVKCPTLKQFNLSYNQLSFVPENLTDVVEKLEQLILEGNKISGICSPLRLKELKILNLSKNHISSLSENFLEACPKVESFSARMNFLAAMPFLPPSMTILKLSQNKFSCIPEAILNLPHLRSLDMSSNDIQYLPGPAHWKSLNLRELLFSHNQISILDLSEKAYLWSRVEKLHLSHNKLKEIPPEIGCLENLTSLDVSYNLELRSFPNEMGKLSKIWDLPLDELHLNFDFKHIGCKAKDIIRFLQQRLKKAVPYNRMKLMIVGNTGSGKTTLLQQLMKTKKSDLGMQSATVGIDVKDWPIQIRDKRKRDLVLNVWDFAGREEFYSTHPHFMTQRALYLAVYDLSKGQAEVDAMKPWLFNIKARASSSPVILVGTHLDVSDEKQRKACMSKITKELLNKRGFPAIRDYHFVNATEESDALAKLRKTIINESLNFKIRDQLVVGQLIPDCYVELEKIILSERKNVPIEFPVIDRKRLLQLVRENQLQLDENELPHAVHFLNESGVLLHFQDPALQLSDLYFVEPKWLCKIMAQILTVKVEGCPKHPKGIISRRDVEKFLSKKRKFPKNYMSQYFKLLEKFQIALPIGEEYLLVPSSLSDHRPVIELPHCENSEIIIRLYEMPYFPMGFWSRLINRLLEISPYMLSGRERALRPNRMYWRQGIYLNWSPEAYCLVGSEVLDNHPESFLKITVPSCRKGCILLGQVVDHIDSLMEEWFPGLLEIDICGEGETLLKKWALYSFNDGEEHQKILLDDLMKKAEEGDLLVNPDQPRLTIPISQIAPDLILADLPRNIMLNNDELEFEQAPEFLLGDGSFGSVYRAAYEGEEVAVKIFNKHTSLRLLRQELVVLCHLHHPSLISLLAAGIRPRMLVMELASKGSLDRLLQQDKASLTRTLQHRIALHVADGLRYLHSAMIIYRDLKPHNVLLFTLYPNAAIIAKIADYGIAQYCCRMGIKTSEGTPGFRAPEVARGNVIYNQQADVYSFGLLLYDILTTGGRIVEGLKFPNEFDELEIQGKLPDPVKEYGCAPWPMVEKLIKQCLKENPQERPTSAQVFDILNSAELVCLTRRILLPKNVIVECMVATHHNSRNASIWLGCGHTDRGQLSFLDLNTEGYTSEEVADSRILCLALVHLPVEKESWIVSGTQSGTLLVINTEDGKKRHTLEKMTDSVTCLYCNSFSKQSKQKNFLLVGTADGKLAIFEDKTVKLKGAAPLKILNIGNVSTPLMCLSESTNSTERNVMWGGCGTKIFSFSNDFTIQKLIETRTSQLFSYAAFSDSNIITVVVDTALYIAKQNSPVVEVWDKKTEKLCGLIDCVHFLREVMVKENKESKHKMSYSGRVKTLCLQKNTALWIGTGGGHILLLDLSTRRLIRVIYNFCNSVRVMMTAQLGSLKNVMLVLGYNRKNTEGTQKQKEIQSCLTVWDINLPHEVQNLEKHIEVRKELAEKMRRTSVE

Cc1cc2cnn(-c3cnn(C)c3)c2cc1C1=C[C@@H]2CNC[C@@H]2C1 (racemic) [Compound 1, (rac)-6-((3aR,6aS)-1,2,3,3a,4,6a-hexahydrocyclopenta[c]pyrrol-5-yl)-5-methyl-1-(1-methyl-1H-pyrazol-4-yl)-1H-indazole]
IC50 [1]: 7580 nM
IC50 [2]: 113 nM

Cc1cc2cnn(-c3cnn(C)c3)c2cc1C1=C[C@@H]2CN(C(=O)OC(C)(C)C)C[C@@H]2C1 (racemic) [Compound 2, (rac)-tert-butyl (3aR,6aS)-5-(5-methyl-1-(1-methyl-1H-pyrazol-4-yl)-1H-indazol-6-yl)-3,3a,4,6a-tetrahydrocyclopenta[c] pyrrole-2(1H)-carboxylate]
LRRK2 WT IC50 [1]: inactive
IC50 [2]: 2290 nM

Cc1cc2cnn(-c3cnn(C)c3)c2cc1C1=C[C@@H]2CN(C3CCOCC3)C[C@@H]2C1 (racemic) [Compound 3, (rac)-5-methyl-1-(1-methyl-1H-pyrazol-4-yl)-6-((3aR,6aS)-2-(tetrahydro-2H-pyran-4-yl)-1,2,3,3a,4,6a-hexahydrocyclopenta[c]pyrrol-5-yl)-1H-indazole]
IC50 [1]: > 10000 nM
IC50 [2]: 716 nM

Cc1cc2cnn(-c3cnn(C)c3)c2cc1[C@H]1C[C@@H]2CN(C3CCCOC3)C[C@@H]2C1 (mixture of isomers) [Compound 11, (rac)-5-methyl-1-(1-methyl-1H-pyrazol-4-yl)-6-((3aR,5s,6aS)-2-(tetrahydro-2H-pyran-3-yl)octahydrocyclopenta[c]pyrrol-5-yl)-1H-indazole]
IC50 [1]: 4340 nM
IC50 [2]: 247 nM

Cc1cc2cnn(-c3cnn(C)c3)c2cc1[C@@H]1C[C@@H]2CN(C3CCCOC3)C[C@@H]2C1 (mixture of isomers) [Compound 12, (rac)-5-methyl-1-(1-methyl-1H-pyrazol-4-yl)-6-((3aR,5r,6aS)-2-(tetrahydro-2H-pyran-3-yl)octahydrocyclopenta[c]pyrrol-5-yl)-1H-indazole]
LRRK2 WT IC50 [1]: inactive
IC50 [2]: 642 nM

COC(=O)N1CCCC(N2C[C@H]3C[C@H](c4cc5c(cnn5-c5cnn(C)c5)cc4C)C[C@H]3C2)C1 (mixture of isomers) [Compound 18, (rac)-methyl 3-((3aR,5s,6aS)-5-(5-methyl-1-(1-methyl-1H-pyrazol-4-yl)-1H-indazol-6-yl)hexahydrocyclopenta[c]pyrrol-2(1H)-yl)piperidine-1-carboxylate]
LRRK2 WT IC50 [1]: inactive
IC50 [2]: 1530 nM

COC(=O)N1CCCC(N2C[C@H]3C[C@@H](c4cc5c(cnn5-c5cnn(C)c5)cc4C)C[C@H]3C2)C1 (mixture of isomers) [Compound 19, (rac)-methyl 3-((3aR,5r,6aS)-5-(5-methyl-1-(1-methyl-1H-pyrazol-4-yl)-1H-indazol-6-yl)hexahydrocyclopenta[c]pyrrol-2(1H)-yl)piperidine-1-carboxylate]
LRRK2 WT IC50 [1]: inactive
IC50 [2]: 1220 nM

Cc1cc2cnn(-c3cnn(C)c3)c2cc1[C@H]1C[C@@H]2CN(C(=O)c3snnc3C)C[C@@H]2C1 [Compound 9, (4-methyl-1,2,3-thiadiazol-5-yl)((3aR,5s,6aS)-5-(5-methyl-1-(1-methyl-1H-pyrazol-4-yl)-1H-indazol-6-yl)hexahydrocyclopenta[c]pyrrol-2(1H)-yl)methanone]
IC50 [1]: 8430 nM
IC50 [2]: 156 nM

Cc1cc2cnn(-c3cnn(C)c3)c2cc1[C@@H]1C[C@@H]2CN(C(=O)c3snnc3C)C[C@@H]2C1 [Compound 10, (4-methyl-1,2,3-thiadiazol-5-yl)((3aR,5r,6aS)-5-(5-methyl-1-(1-methyl-1H-pyrazol-4-yl)-1H-indazol-6-yl)hexahydrocyclopenta[c]pyrrol-2(1H)-yl)methanone]
LRRK2 WT IC50 [1]: inactive
IC50 [2]: 643 nM
